Test results published in BindingDB's records for doi:10.7270/Q2ZC817P (The Scripps Research Institute Molecular Screening Center, 2007).
Where a name gives a salt, the structure may show the parent alone.

Target: Sphingosine 1-phosphate receptor 1 (Homo sapiens, UniProt P21453)
Experiment: S1P1 agonism potentiation – cell-based, potentiator mode, 60K MLSMR set, dose response (AID 466)
Conditions: not given

Sphingosine 1-phosphate receptor 1, sequence (P21453 whole entry): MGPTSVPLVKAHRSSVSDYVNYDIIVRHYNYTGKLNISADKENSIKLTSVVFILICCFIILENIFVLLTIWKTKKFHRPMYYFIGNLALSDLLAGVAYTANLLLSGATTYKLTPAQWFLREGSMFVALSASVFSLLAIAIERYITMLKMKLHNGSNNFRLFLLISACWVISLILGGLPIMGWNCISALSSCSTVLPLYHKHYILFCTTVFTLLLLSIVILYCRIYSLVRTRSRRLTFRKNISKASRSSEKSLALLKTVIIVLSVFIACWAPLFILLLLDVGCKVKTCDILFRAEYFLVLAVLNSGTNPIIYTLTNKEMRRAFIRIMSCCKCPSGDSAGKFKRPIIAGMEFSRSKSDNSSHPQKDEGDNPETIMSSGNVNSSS

| SMILES | EC50 [µM] |
| --- | --- |
| COc1ccc(-n2nc3ccc(NS(C)(=O)=O)cc3n2)cc1Cl [MLS000049114] | 0.126 |
| COc1ccc(-c2nc3cc(NC(=O)Cc4ccc(OC)c(OC)c4)ccc3o2)cc1 [2-(3,4-dimethoxyphenyl)-N-[2-(4-methoxyphenyl)-1,3-benzoxazol-5-yl]acetamide] | 9.09 |
| Cc1cc(N2CCN(C/C=C/c3ccccc3)CC2)n2ncnc2n1 [5-Methyl-7-[4-((E)-3-phenyl-allyl)-piperazin-1-yl]-[1,2,4]triazolo[1,5-a]pyrimidine] | > 30 |
| O=C(Nc1ccc(N2CCOCC2)c(Cl)c1)c1cccc(F)c1 [MLS000066209] | 0.935 |
| Oc1ccc(-c2nnc(-c3ccc(O)cc3)nn2)cc1 [4,4'-(1,2,4,5-tetrazine-3,6-diyl)diphenol] | > 10 |
| Clc1ccc(OCc2nnc(-c3ccccc3Br)o2)c(Cl)c1 [2-(2-bromophenyl)-5-[(2,4-dichlorophenoxy)methyl]-1,3,4-oxadiazole] | > 95 |
| Cc1ccc(-n2ncc3c(N4CCCC(C)C4)ncnc32)c(C)c1 (centres undefined) [1-(2,4-dimethylphenyl)-4-(3-methylpiperidin-1-yl)-1H-pyrazolo[3,4-d]pyrimidine] | 8.81 |
| CCn1c(NC(=O)c2cccc(Cn3cc(Cl)cn3)c2)nc2ccccc21 [3-[(4-chloranylpyrazol-1-yl)methyl]-N-(1-ethylbenzimidazol-2-yl)benzamide] | > 10 |
| Fc1ccc2[nH]c3c(N4CCN(c5ccccc5)CC4)ncnc3c2c1 | 9.52 |
| CN1/C(=C/C(=O)c2nc(S(C)(=O)=O)ncc2Cl)C(C)(C)c2ccccc21 | 9.04 |
| Fc1ccc2[nH]c3c(N4CCSCC4)ncnc3c2c1 [MLS000078401] | 6.28 |
| CCOC(=O)CN1C(=O)C(C)(C)Oc2ccc(C(=O)Nc3ccccc3OC)cc21 [2-[3-keto-6-[(2-methoxyphenyl)carbamoyl]-2,2-dimethyl-1,4-benzoxazin-4-yl]acetic acid ethyl ester] | 3.12 |
| CCN(CC)C(=O)CS/C(=N/C#N)Nc1ccccc1F [2-[[N-cyano-N'-(2-fluorophenyl)amidino]thio]-N,N-diethyl-acetamide] | > 95 |
| Cc1cccc(-c2nc(CSCC(=O)N3CCN(Cc4ccc5c(c4)OCO5)CC3)c(C)o2)c1 [1-(1,3-benzodioxol-5-ylmethyl)-4-[({[5-methyl-2-(3-methylphenyl)-1,3-oxazol-4-yl]methyl}thio)acetyl]piperazine] | 5.42 |
| O=C(Nc1ncc(Br)s1)C(Cc1ccccc1)n1cccc1 (centres undefined) [MLS000119027] | 2.92 |
| COc1ccc(OC)c(-c2cc(C(=O)Nc3c(C)nn(Cc4ccc(Cl)cc4)c3C)no2)c1 [MLS000087191] | > 10 |
| CC1(C)CC(=O)C(=CNc2ccc3[nH]ncc3c2)C(=O)C1 [SMR000111453] | 6.01 |
| Cc1ccc2c(c1)[nH]c1c(N3CCN(Cc4ccccc4)CC3)ncnc12 [SMR000044826] | 3.65 |
| COC(=O)c1ccc(OCC(O)Cn2nnc3ccccc32)cc1 (centres undefined) [4-[3-(1-benzotriazolyl)-2-hydroxypropoxy]benzoic acid methyl ester] | > 95 |
| CCc1ccc(S(=O)(=O)NCCc2csc(-c3ccccc3)n2)s1 [5-ethyl-N-[2-(2-phenyl-1,3-thiazol-4-yl)ethyl]thiophene-2-sulfonamide] | 8.24 |
| COc1cc2c(cc1OC)C(C)N(C(=O)c1cc3ccccc3o1)CC2 (centres undefined) [1-benzofuran-2-yl-(6,7-dimethoxy-1-methyl-3,4-dihydro-1H-isoquinolin-2-yl)methanone] | > 30 |
| Cc1cc(C(=O)CSc2nnnn2-c2ccc(O)cc2)c(C)n1Cc1ccc2c(c1)OCO2 [1-(2,5-dimethyl-1-piperonyl-pyrrol-3-yl)-2-[[1-(4-hydroxyphenyl)tetrazol-5-yl]thio]ethanone] | 6.14 |

| SMILES | EC50 [µM] |
| --- | --- |
| O=C(CCc1nc(-c2ccccc2F)no1)Nc1ccc(Oc2ccccc2)cc1 [3-[3-(2-fluorophenyl)-1,2,4-oxadiazol-5-yl]-N-(4-phenoxyphenyl)propanamide] | 4.77 |
| O=S(=O)(NCc1ccncc1)c1ccc(Br)s1 [5-bromanyl-N-(pyridin-4-ylmethyl)thiophene-2-sulfonamide] | 2.21 |
| N#C/C(=C/c1ccc(N2CCCCCC2)o1)c1ccc(F)cc1 [MLS000051438] | > 10 |
| Cc1cc(C(=O)Nc2sc(C)c(-c3ccc(F)cc3)c2C(N)=O)no1 [MLS000043467] | 5.47 |
| NC(=Nc1nc2c(c(=O)[nH]1)CCCC2)Nc1ccccc1 [MLS000078734] | 5.87 |
| COC(=O)CS(=O)(=O)c1nnc([C@H](Cc2ccccc2)NC(=O)OC(C)(C)C)o1 [SMR000046685] | 8.44 |
| COCCn1c(C)cc(C(=O)CSc2nnc(-c3cccnc3)n2-c2ccccc2F)c1C [2-[[4-(2-fluorophenyl)-5-(3-pyridinyl)-1,2,4-triazol-3-yl]thio]-1-[1-(2-methoxyethyl)-2,5-dimethyl-3-pyrrolyl]ethanone] | 1.22 |
| CCOc1ccc(C(=O)Nc2c(C(N)=O)oc3ccccc23)cc1 [3-[(4-ethoxybenzoyl)amino]-1-benzofuran-2-carboxamide] | 3.67 |
| COc1ccc(CCNc2c(C)c(C)nc3ncnn23)cc1 [(5,6-Dimethyl-[1,2,4]triazolo[1,5-a]pyrimidin-7-yl)-[2-(4-methoxy-phenyl)-ethyl]-amine] | 3.72 |
| CC(C)c1ccc2oc(-c3ccc(N)cc3)nc2c1 [4-(5-propan-2-yl-1,3-benzoxazol-2-yl)aniline] | 2.14 |
| Oc1ccc(-c2nc(-c3ccc(O)c(O)c3)cs2)cc1 | 13.1 |
| CCN=c1scc(-c2ccc3c(c2)NC(=O)CO3)n1N=C1CCCC1 [MLS000054638] | 7.16 |
| Cc1ccc(C(C)C)c(OCc2nc(-c3nonc3N)no2)c1 [4-[5-[(5-methyl-2-propan-2-yl-phenoxy)methyl]-1,2,4-oxadiazol-3-yl]-1,2,5-oxadiazol-3-amine] | 1.12 |
| O=C(Nc1ccc(-c2noc(CCc3ccccc3)n2)cc1)c1cccnc1 [MLS000047253] | 3.4 |
| CN(C)c1oc(-c2ccc(OCc3ccccc3)cc2)nc1C#N [2-(4-benzoxyphenyl)-5-(dimethylamino)oxazole-4-carbonitrile] | 3.01 |
| Cc1nc2ccccc2c2oc(C(=O)NCC3COc4ccccc4O3)cc12 (centres undefined) [MLS000118430] | 9.7 |
| Cc1ccccc1OCCCCc1c(C)n[nH]c1C [SMR000103095] | 6.51 |
| O=C(CSC1=NCCS1)Nc1ccnc2ccccc12 [2-(4,5-dihydro-1,3-thiazol-2-ylsulfanyl)-N-quinolin-4-yl-ethanamide] | 2.55 |
| c1ccc(-c2ccc(-c3nc(-c4ccncc4)no3)cc2)cc1 [5-(4-phenylphenyl)-3-(4-pyridyl)-1,2,4-oxadiazole] | 8.31 |
| Cc1nn(-c2nc3ccccc3s2)c(N)c1-c1ccccc1 [1-(1,3-benzothiazol-2-yl)-3-methyl-4-phenyl-1H-pyrazol-5-amine] | 0.385 |
| COc1ccc(C(=O)C2C(=O)C(=O)N(CC3CCCO3)C2c2cccc(OC)c2)cc1 (centres undefined) [(4Z)-4-[hydroxy-(4-methoxyphenyl)methylene]-5-(3-methoxyphenyl)-1-(tetrahydrofurfuryl)pyrrolidine-2,3-quinone] | > 95 |
| CCOc1cc(C2NCc3ccccc3-n3cccc32)ccc1O (centres undefined) [4-(5,6-dihydro-4H-pyrrolo[1,2-a][1,4]benzodiazepin-4-yl)-2-ethoxy-phenol;hydrochloride] | 15 |

Same assay, conditions: inactive by the depositor's call

| SMILES | EC50 [µM] |
| --- | --- |
| Nn1c(Nc2ccccc2)nc2sc3c(c2c1=O)CCC3 [2-amino-3-anilino-7,8-dihydro-6H-cyclopenta[2,3]thieno[2,4-b]pyrimidin-1-one] | 21.7 |
| CCc1ccc2c(COC(=O)c3n[nH]c4ccccc34)cc(=O)oc2c1 [(7-ethyl-2-oxochromen-4-yl)methyl 1H-indazole-3-carboxylate] | 10.4 |
| Cc1ccc(Cl)cc1N1CCN(C(=O)COc2ccc(S(=O)(=O)NC(C)C)cc2)CC1 [4-[2-[4-(5-chloranyl-2-methyl-phenyl)piperazin-1-yl]-2-oxidanylidene-ethoxy]-N-propan-2-yl-benzenesulfonamide] | 13.1 |
| CCOc1ccccc1COC(=O)c1cccc(-n2cnnn2)c1 [(2-ethoxyphenyl)methyl 3-(1,2,3,4-tetrazol-1-yl)benzoate] | 25.8 |
| Cc1ccc(N2C(=O)c3cccc4c(N5CCN(C)CC5)ccc(c34)C2=O)c2cccnc12 [6-(4-methyl-1-piperazinyl)-2-(8-methyl-5-quinolinyl)-1H-benzo[de]isoquinoline-1,3(2H)-dione] | 33.2 |
| CC/N=c1\sc(C(=O)NCCc2ccccc2)cc(=O)n1CC [3-Ethyl-2-[(Z)-ethylimino]-4-oxo-3,4-dihydro-2H-[1,3]thiazine-6-carboxylic acid phenethyl-amide] | 23.1 |
| CC(=O)c1sc(NC(=O)C2(F)C(F)(F)C(F)(F)C(F)(F)C(F)(F)C2(F)F)nc1C [MLS000040071] | 31.1 |
| CCCn1c(NC(=O)c2cccc(S(=O)(=O)N3CCCC3)c2)nc2ccccc21 [MLS000057540] | 10.3 |
| CN1CCN(C(=O)CSc2nc(-c3cccs3)cc(-c3cccs3)c2C#N)CC1 [2-[2-(4-methylpiperazin-1-yl)-2-oxidanylidene-ethyl]sulfanyl-4,6-dithiophen-2-yl-pyridine-3-carbonitrile] | 12.9 |
| Cc1ccccc1CS(=O)(=O)c1nnc([C@H](CC(C)C)NC(=O)OC(C)(C)C)o1 [SMR000044673] | 10.1 |
| Cc1ccc(C)c(-n2nnnc2Sc2nnnn2-c2ccccc2)c1 [1-(2,5-dimethylphenyl)-5-(1-phenyltetrazol-5-yl)sulfanyltetrazole] | 14.8 |
| Oc1ccc(N2CCN(c3ncnc4sc5c(c34)CCC5)CC2)cc1 [4-[4-(7,8-dihydro-6H-cyclopenta[4,5]thieno[1,2-c]pyrimidin-1-yl)-1-piperazinyl]phenol] | 10.6 |
| COc1ccc2ncn(-c3ccccc3)c2c1 [6-methoxy-1-phenyl-1H-1,3-benzodiazole] | 23.6 |
| COC(=O)c1ccc(CSc2nc3ccccc3c(=O)n2Cc2ccco2)o1 [5-[[[3-(2-furanylmethyl)-4-oxo-2-quinazolinyl]thio]methyl]-2-furancarboxylic acid methyl ester] | 40.4 |
| CCOC(=O)c1oc2ccc(S(=O)(=O)n3nc(-c4ccc(OC)cc4)cc3N)cc2c1C [5-[5-amino-3-(4-methoxyphenyl)pyrazol-1-yl]sulfonyl-3-methyl-coumarilic acid ethyl ester] | 44.3 |
